Literature values in patent US12161617B2, “Methocarbamol compositions and related methods” (Exela Sterile Medicines LLC, priority 2014, dated 2024).

COc1ccccc1OCC(O)COC(N)=O (centres unmarked) [methocarbamol, 3-(2-methoxyphenoxy)-1,2-propanediol 1-carbamate]
differences with respect to methocarbamol absorption (patients undergoing maintenance haemodialysis vs normal subjects): no significant differences | relative systemic availability in patients (renal dialysis patients relative to normal subjects): 113%
